# In patent publication US20230384333A1 (priority 2020, published 2023):
# Values joined by “and” are separate entries in the source; they are usually repeats but may differ in a detail not shown here. Equal values may be shown once. “Also recorded” adds a separate entry of the source. Where a name gives a salt, the structure may show the parent alone.
# Assays:
# [1] = tested on: psychLight2; assay: PSYLI2 high-content imaging, agonist mode; type: cell-based, human; conditions: 10 μM compound, hit limit 1 SD from vehicle
# Description: (§1) High-Content Imaging Experiments. Glass bottom 96-well plates (P96-1.5H-N, Cellvis) were coated with 50 μg/mL of poly-D-lysine (Sigma, P6407-5MG) and 10 μg/mL laminin (Sigma, L2020) overnight in an incubator (37° C., 5% CO2). […] Immediately prior to an experiment, stock solutions of drugs in DMSO (10 mM) were first diluted 1:100 in imaging media distributed across an empty 96-well plate (treatment plate) in triplicates following a randomized plate map. […] Cells grown in a separate 96-well plate (assay plate) were gently washed (3×) with imaging media, and the wells were filled with an appropriate volume of imaging media for the respective experiment (vide infra).
# (§2) For agonist mode, […] of imaging media was added to each well of the assay plate. Wells were then imaged on a Lecia DMi8 using Leica Application Suite X (V3.6.0.20104) at 40×(N.A.=0.6) with 5 regions of interest (ROI) taken per well using the default 5 ROI pattern for each well with no bias to location and no overlap of the ROIs (exposure=350 ms, LED power=80%). Next, 20 μL from the treatment plate was transferred to the assay plate for a total 1:1000 dilution of drug (10 μM drug, 0.1% DMSO). […] All final concentrations of drugs were 10 μM (0.1% DMSO) in agonist mode unless stated otherwise. After 5 min of incubation, the same sites were re-imaged using the same settings.
# Once imaging was complete, the images were exported, put into a stack, and analyzed using ImageJ Fiji (ver. 1.51v) by using the rectangle function to draw an ROI around the cell membrane (one cell per image) on both the pre- and posttreatment images. ROI sizes within each plate were kept the same and saved to the ROI manager in ImageJ (ctrl+T). Images were then measured using the “multi measure” function in the ROI manager. Measurements were saved and exported. Analysis of the data was done by taking the average of each individual well's ROIs before and after drugs were added. Then the ΔF/F values for each well were calculated using the following equation: […]
# as §1, with “Glass” for “High-Content Imaging Experiments. Glass”, “50 µg/mL” for “50 μg/mL”, “10 pg/mL of” for “10 μg/mL”, “were” for “were first”, “in triplicate” for “in triplicates”, “washed 3×” for “washed (3×)”
# as §2, with “agonist mode experiments,” for “agonist mode,”, “media were” for “media was”, “20 pL” for “20 μL”, “plate containing” for “plate for”, “a” for “a total”, “(10 pM as the final concentration in” for “(10 μM drug,”
# Once imaging was complete, the images were exported, and analyzed using self-written MATLAB script. Script will be deposit on to Github. In short, segmentation was performed on individual images and a mask highlighting the membrane of the HEK293T cells was generated. Pixel intensities were obtained from the mask-highlighted area and exported into Excel. The ΔF/F values for each well were calculated using the following equation: […]
# [2] = tested on: psychLight2; type: cell-based, human
# Description: Compounds unlikely to bind to the sensor should produce minimal to no response in either agonist or antagonist mode. Therefore, a ligand score was calculated as: […]
# [3] = tested on: psychLight; assay: Schild regression analysis in PSYLI2 cells; type: cell-based, human
# Description: During imaging, […] of imaging media were added to each well of the assay plate. Wells were then imaged on a Lecia DMi8 using Leica Application Suite X (V3.6.0.20104) at 40×(N.A.=0.6) with 5 regions of interest (ROI) taken per well using the default 5 ROI pattern for each well with no bias to location and no overlap of the ROIs (exposure=350 ms, LED power=80%). Next, […] from the treatment plate was transferred to the assay plate for a final 1:1000 dilution of drug. All final drug treatments contained 0.1% DMSO. After 5 min of incubation, the same sites were re-imaged using the same settings. The data analysis method was the same as in agonist and antagonist mode.
# [4] = tested on: GPCR-based sensors (dopamine, adrenergic, opioid, and serotonin receptors); type: cell-based; conditions: 10 μM AAZ-A-154, agonist and antagonist mode
# [5] = tested on: C57BL/6J mice; assay: Head-twitch response (HTR) assay; type: in vivo, mouse; conditions: i.p., multiple doses
# Description: (§3) The HTR assay was performed as described previously using both male and female C57BL/6J mice (2 male and 2 female=4 total per treatment). The mice were obtained from The Jackson Laboratory (Sacramento, C.A.) and were approximately 8-weeks old at the time of the experiments. Compounds were administered (5 mL/kg, i.p.) using 0.9% saline as the vehicle. After injection, animals were placed into an empty cage (8″×13″×5″) and HTRs were videotaped, scored later by two blinded observers, and the results were averaged (interpersonnel kappas, Pearson correlation coefficient>0.91). Locomotion was assessed using AnyMaze automated tracking software.
# [6] = tested on: C57BL/6J mice; assay: Locomotion assay; type: in vivo, mouse; conditions: i.p., multiple doses
# Description: as §3
# [7] = tested on: embryonic rat cortical neurons; assay: Dendritogenesis (Sholl analysis) in cultured cortical neurons; type: cell-based
# Description: For the dendritogenesis experiments conducted using cultured E18 cortical neurons, timed-pregnant Sprague Dawley rats were obtained from Charles River Laboratories (Wilmington, MA). Full culturing, staining, and analysis details were performed as previously described.
# [8] = tested on: C57BL/6J mice; assay: Forced swim test (FST); type: in vivo, mouse
# [9] = tested on: VMAT2-HET mice; assay: Sucrose preference (anhedonia) test; type: in vivo, mouse
# Description: Adult male and female wild-type (WT) and VMAT2 heterozygous (VMAT2-HET) mice were used for these experiments, and they were housed in a humidity- and temperature-controlled room on a 14:10 h light:dark cycle. Mice were housed individually 48 h prior to the experiment with ad libitum access to chow and water. For each day's experiment, bottles were prepared with water or a 1% sucrose solution and these were weighed just prior to the test. Two h prior to the beginning of the dark cycle, the home-cage water bottle was removed. One h after onset of the dark cycle, a pair of bottles was placed into the home-cage. The mouse was given 2 h to drink, after which the bottles were removed and weighed immediately. Approximately 1 h later, the home-cage water bottle was returned. […] Once criterion was achieved, the mouse was presented with the water-sucrose (W-S) pairing. The next day (day 1), mice were administered an acute injection of AAZ-A-154 (15 mg/kg, i.p.) and 5 min later were given the W-S pairing (i.e., day 1). Subsequent W-S pairings were presented on days 2 and 4, and then at 4-day intervals. Preference for the sucrose bottle was calculated as the volume of sucrose consumed minus the volume of water consumed, divided by the total volume of liquid consumed. Preference scores approaching “0” indicated no preference for sucrose or water, whereas positive scores signified a preference for sucrose and negative scores denoted a preference for water.
# [10] = Plate reader screening for compound fluorescence (cell-free); type: physicochemical; conditions: 10 μM, excitation 465 nm, emission 518 nm
# [11] = tested on: dLight; type: cell-based
# [12] = tested on: psychLight2; type: cell-based, mouse
# [13] = tested on: psychLight2 response to electrically evoked 5-HT release; set-up: species or system mouse; conditions: 50 mM escitalopram as printed
# [14] = tested on: 5-HT levels reported by psychLight2 in DRN, BNST, BLA, OFC; type: in vivo, mouse; conditions: 10 mg/kg, 30 mins prior to imaging
smiles,measurement,setting,value
COc1ccc2c(ccn2C[C@@H](C)N(C)C)c1.O=C(O)/C=C/C(=O)O [AAZ-A-154],screen outcome in agonist mode,[1],decreased the intrinsic fluorescence of psychLight
same,ligand score,[2],favorable ligand score
same,Schild regression (pA2) outcome,[3],psychLight competitive antagonist
same,selectivity across receptor-based sensors,[4],high selectivity for 5-HT2 receptors
same,head-twitch response (HTR),[5],"did not produce any head-twitches, even up to doses as high as 100 mg/kg; also recorded: failed to produce any head-twitches, even up to doses as high as 100 mg/kg"
same,locomotion,[6],a high dose of the compound did decrease locomotion; also recorded: a high dose of AAZ-A-154 decreased locomotion; also recorded: only decreases locomotion at a very high dose (100 mg/kg)
same,dendritic arbor complexity (Sholl analysis),[7],increased dendritic arbor complexity; also recorded: increases dendritic arbor complexity to a comparable extent as the fast-acting antidepressant ketamine
same,effect on dendritic growth in presence of ketanserin,[7],abrogated by the 5-HT2A antagonist ketanserin; also recorded: abolished by the 5-HT2R antagonist ketanserin
same,immobility in the forced swim test,[8]; 20 mg/kg i.p.,decreased immobility
same,time course of antidepressant-like effects in FST,"[8]; single administration 20 mg/kg, tested 30 min and 1 week later",both rapid (30 min) and long-lasting (1 week) antidepressant-like effects
same,sucrose preference of WT animals,[9]; 15 mg/kg i.p.,had no effect on WT animals; also recorded: did not modify sucrose preference in the WT animals
same,persistence of anti-anhedonic effect,"[9]; VMAT2-HET mice, single injection 15 mg/kg, listed as AAZ, 15 mg/kg",at least 12 days
same,duration of beneficial behavioral effects,"[9]; rodents, single administration",> 1 week and > 2 week
same,sucrose preference of VMAT2-HET mice after dosing,[9]; single injection 15 mg/kg i.p.,sucrose preference that was indistinguishable from WT controls
"CCN(CC)C(=O)[C@@H]1C=C2c3cccc4[nH]c(Br)c(c34)C[C@H]2N(C)C1 [BOL-148, 2-bromo-lysergic acid di-ethylamide]",screen outcome in agonist mode,[1],producing positive signals; also recorded: produced unexpected fluorescence signals
same,"origin of fluorescence signal, cell-free vs PSYLI2 cells",[10],"due to the inherent fluorescence of these compounds, and not due to activation of the sensor"
"CCN(CC)C(=O)[C@@H]1C=C2c3cccc4[nH]cc(c34)C[C@H]2N(C)C1 [LSD, lysergic acid diethylamide]",activation of dLight,[11],both activated dLight to the same extent
CP(C)C.F[P-](F)(F)(F)(F)F.F[P-](F)(F)(F)(F)F.NCCc1c[nH]c2ccc(O)cc12.[Ru+2].c1ccc(-c2ccccn2)nc1.c1ccc(-c2ccccn2)nc1 [RuBi-5-HT],ΔpL2/tdT (psychLight2 to tdTomato ratio vs baseline),[12],111.2%±0.7%
"CN(C)CCC[C@@]1(c2ccc(F)cc2)OCc2cc(C#N)ccc21 [escitalopram, escitalopram oxalate]",ΔF/F of psychLight2 response to electrical stimuli,[13],18.4%±4.3%
same,effect on 5-HT dynamics following foot shock,[14],mitigated the reduction in 5-HT levels observed following foot shock; also recorded: delayed the return of elevated 5-HT levels to baseline
